# Experimental data published in patent US20160235735A1 (Teva Pharmaceutical Industries, Ltd., priority 2012, published 2016).
# Several values for one entry are separate records, joined by “and”; a condition that tells them apart may be missing. Identical values can stand only once.
# Assays:
# [1] = test system: MOG-induced EAE Mice; test: MOG-induced EAE in mice: laquinimod alone or in combination with fampridine; format: in vivo, C57BL/6 mice; conditions: for Incidence / Mortality: 30 days; for % inhibition 3: according to GMS; for % inhibition 2: according to MMS; for % inhibition 1: according to incidence; for GMS value: group mean score; for MMS value: mean maximal score
# [2] = in vivo; cited from earlier work
# [3] = cited from earlier work
# [4] = in vivo; cited from earlier work; remark: listed apart in the source
# [5] = 4AP 2.5 mg/kg oral QD, compared to vehicle
# [6] = 4AP 5 mg/kg oral QD, compared to vehicle
# [7] = laquinimod 10 mg/kg oral QD, compared to vehicle
# [8] = laquinimod 25 mg/kg oral QD, compared to LAQ (10 mg/kg)
# [9] = laquinimod 25 mg/kg oral QD, compared to vehicle
smiles,measurement,setting,value
"Nc1ccncc1 [4AP, pyridin-4-amine]",Incidence,[1]; 4AP 2.5 mg/kg oral QD,15/15
same,Mortality,[1]; 4AP 2.5 mg/kg oral QD,0/15
same,% inhibition 3,[1]; [5],24.1%
same,% inhibition 3,"[1]; 4AP 2.5 mg/kg oral QD, compared to vehicle, listed as fampridine",24.1%
same,% inhibition 2,[1]; [5],10.2%
same,% inhibition 1,[1]; [5],0%
same,GMS value,[1]; 4AP 2.5 mg/kg oral QD,2.2 ± 0.5
same,MMS value,[1]; 4AP 2.5 mg/kg oral QD,3.5 ± 0.6
same,Incidence,[1]; 4AP 5 mg/kg oral QD,15/15
same,Mortality,[1]; 4AP 5 mg/kg oral QD,0/15
same,% inhibition 3,[1]; [6],34.5%
same,% inhibition 3,"[1]; 4AP 5 mg/kg oral QD, compared to vehicle, listed as fampridine",34.5%
same,% inhibition 2,[1]; [6],12.8%
same,% inhibition 1,[1]; [6],0%
same,GMS value,[1]; 4AP 5 mg/kg oral QD,1.9 ± 0.6
same,MMS value,[1]; 4AP 5 mg/kg oral QD,3.4 ± 0.6
same,safety issues,[2],safety issues related to seizure induction
same,solubility in aqueous solution,[3]; chloride salt,readily soluble
same,lipid solubility,[3]; unionized form,lipid-soluble
"CCN(C(=O)c1c(O)c2c(Cl)cccc2n(C)c1=O)c1ccccc1 [LAQ, Laquinimod]",Incidence,[1]; laquinimod 10 mg/kg oral QD,10/15 and 15/15
same,Mortality,[1]; laquinimod 10 mg/kg oral QD,0/15
same,% inhibition 3,[1]; [7],58.6%
same,% inhibition 3,"[1]; laquinimod 10 mg/kg oral QD, compared to vehicle, listed as laquinimod",58.6%
same,% inhibition 2,[1]; [7],38.5%
same,% inhibition 1,[1]; [7],33.3%
same,GMS value,[1]; laquinimod 10 mg/kg oral QD,1.2 ± 1.0
same,MMS value,[1]; laquinimod 10 mg/kg oral QD,2.4 ± 1.9
same,Incidence,[1]; laquinimod 25 mg/kg oral QD,4/15
same,Mortality,[1]; laquinimod 25 mg/kg oral QD,0/15
same,% inhibition 3,[1]; [8],66.7%
same,% inhibition 3,[1]; [9],86.2%
same,% inhibition 3,"[1]; laquinimod 25 mg/kg oral QD, compared to vehicle, listed as laquinimod",86.2%
same,% inhibition 2,[1]; [8],70.8%
same,% inhibition 2,[1]; [9],82.1%
same,% inhibition 1,[1]; [8],60.0%
same,% inhibition 1,[1]; [9],73.3%
same,GMS value,[1]; laquinimod 25 mg/kg oral QD,0.4 ± 0.7
same,MMS value,[1]; laquinimod 25 mg/kg oral QD,0.7 ± 1.3
same,oral bioavailability,[4],high oral bioavailability
